Assay results published in ChEMBL document CHEMBL1201862, “PubChem BioAssay data set” (2004).
Active and inactive are the calls of the source.

Key:
[1] = Trypanosoma cruzi growth suppression in host cells – NIH3T3 host cells, beta-gal luminescence, confirmation (AID 2044); format: functional, cell-based;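 note: intracellular parasites grown in NIH/3T3 mouse fibroblasts as host cells; luminescent beta-galactosidase reporter signal from transgenic T. cruzi replicating inside host cells; inhibitors lower the luminescence signal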
[2] = NIH3T3 cell viability loss – ATP luminescence, mouse fibroblasts, counter-screen, dose response (AID 2010); format: functional, cell-based;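 note: cells exposed to compound for about 90 hours before reading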
Paired box protein Pax-8 = Paired box protein Pax-8 (Homo sapiens, UniProt Q06710); test: PAX8 transcriptional activity inhibition in RMG-I – RMG-I cells, luciferase, cherry-pick, dose response (AID 687027); format: functional, cell-based;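 note: luciferase reporter driven by Pax8 target thyroperoxidase promoter measured by SteadyGlo luminescence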
[3] = OVCAR8 cell viability loss – plate reader, dry powder samples, PAX8 project, dose response (AID 743197); format: functional, cell-based; conditions: OVCAR-8
[4] = blockers of HIV-1 envelope-mediated cell-cell fusion – cherry-pick, dose response (AID 652057); format: functional, cell-based
[5] = viability loss in CEM21 cells – cell-based, CellTiter-Glo luminescence, cherry-picked, cytotoxicity control for viral fusion inhibitor project, dose response (AID 652042); format: functional;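 note: potency for signal decrease meaning cytotoxicity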
[6] = blockers of HIV-1 ZM109 envelope-driven cell-cell fusion – HeLa effector, CEM target cells, luciferase, cherry-pick, dose response (AID 652058); format: functional, cell-based;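 note: luciferase signal from HIV-1 Env mediated cell-cell fusion of effector and target cells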
[7] = off-target signal loss in HeLa-CEM21 co-culture – HeLa F-luc CTL cells, cherry-picked, counter-screen for HIV-1 Env fusion inhibitor project, dose response (AID 652040); format: functional, cell-based;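 note: potency for signal decrease marking cytotoxic or nonspecific inhibition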
[8] = HIV-1 AD8 envelope cell-cell fusion blockers – cherry-pick, dose response (AID 652062); format: functional, cell-based;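 note: luciferase signal from cell-cell fusion driven by HIV-1 clade B AD8 Env; potency is for inhibitors of fusion seen as a drop in luminescence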
fMet-Leu-Phe receptor = target: T1, fMet-Leu-Phe receptor (Homo sapiens, UniProt P21462); test: formyl peptide receptor binders – dose response (AID 519); format: functional
T1 sequence (P21462 whole entry): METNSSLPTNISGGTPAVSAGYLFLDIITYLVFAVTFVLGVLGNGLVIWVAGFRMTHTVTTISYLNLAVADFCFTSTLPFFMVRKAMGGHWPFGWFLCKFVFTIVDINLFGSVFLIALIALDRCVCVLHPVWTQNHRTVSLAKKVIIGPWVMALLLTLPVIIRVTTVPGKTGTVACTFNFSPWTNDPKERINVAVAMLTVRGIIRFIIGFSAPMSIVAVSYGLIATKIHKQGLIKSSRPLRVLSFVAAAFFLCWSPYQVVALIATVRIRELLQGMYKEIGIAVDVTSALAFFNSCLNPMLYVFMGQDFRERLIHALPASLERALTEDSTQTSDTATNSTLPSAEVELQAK

[9] = T. cruzi growth inhibition in host cells, dose response, cell-based, plate reader, dry powder, set 2 (AID 652275); format: functional
Estrogen receptor beta = Estrogen receptor beta (Homo sapiens, UniProt Q92731);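 note: recombinant ER-beta bound to coactivator SRC1 peptide in presence of estradiol agonist; inhibitors block coactivator peptide binding and lower the FRET signal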
Vero = test: viability loss in Vero cells – cell-based, plate reader, cherry-pick samples, cytotoxicity control, dose response (AID 687020); format: functional; conditions: Chlorocebus sabaeus
BJ [10] = test: BJ-TERT fibroblast viability loss – cell-based, RAS-independent, luminescence, dose response (AID 1933); format: functional; conditions: Homo sapiens
[11] = Luminescence Cell-Based Dose Response HTS to Identify Inhibitors of 5'UTR Stem-Loop Driven Prion Protein mRNA Translation in H4 Neuroglioblastoma Cells. [Related pubchem assays: 1827 (Project Summary), 1813 (Primary HTS)]; format: functional
[12] = alpha-synuclein stem-loop luciferase translation blockers – H4 neuroglioma cells, luminescence, confirmation (AID 1988); format: functional, cell-based
BJ [13] = test: cells; format: functional, cell-based; conditions: Homo sapiens
BJ [14] = test: BJ-TERT-LT-ST fibroblast viability loss – cell-based, RAS-independent, luminescence, dose response (AID 1935); format: functional; conditions: Homo sapiens;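 note: BJ fibroblasts immortalized with TERT plus LT and ST oncogenes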
[15] = DRD fibroblast viability loss – cell-based, non-viral oncogenic, luminescence, dose response (AID 1934); format: functional; conditions: Homo sapiens
[16] = A549 cell cytotoxicity, dose response, cytotoxicity control, plate reader, cherry-pick, antagonist series (AID 743412); format: functional, cell-based
[17] = toxicity toward HepG2 liver cells – cell-based, plate reader, cherry-pick, antagonist series, cytotoxicity control, dose response (AID 743416); format: functional
[18] = blockers of bursicon-stimulated LGR2 cAMP reporter – cell-based, HEK293, CRE-luciferase reporter, cherry pick, set 2, dose response (AID 743343); format: functional;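 note: transfected cells were stimulated with diluted bursicon conditioned medium after compound addition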
[19] = blockade of melanocortin 4 receptor signaling – cell-based, plate reader, cherry pick, counter-screen for LGR2 antagonist project, dose response (AID 743444); format: functional;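 note: transfected HEK 293 cells stimulated with alpha-MSH peptide; potency of inhibitors of the alpha-MSH evoked signal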
[20] = viability loss in HEK293 cells – cell-based, plate reader, cherry-picked samples, cytotoxicity control, dose response (AID 743446); format: functional

Sequence of Paired box protein Pax-8 (Q06710 whole entry): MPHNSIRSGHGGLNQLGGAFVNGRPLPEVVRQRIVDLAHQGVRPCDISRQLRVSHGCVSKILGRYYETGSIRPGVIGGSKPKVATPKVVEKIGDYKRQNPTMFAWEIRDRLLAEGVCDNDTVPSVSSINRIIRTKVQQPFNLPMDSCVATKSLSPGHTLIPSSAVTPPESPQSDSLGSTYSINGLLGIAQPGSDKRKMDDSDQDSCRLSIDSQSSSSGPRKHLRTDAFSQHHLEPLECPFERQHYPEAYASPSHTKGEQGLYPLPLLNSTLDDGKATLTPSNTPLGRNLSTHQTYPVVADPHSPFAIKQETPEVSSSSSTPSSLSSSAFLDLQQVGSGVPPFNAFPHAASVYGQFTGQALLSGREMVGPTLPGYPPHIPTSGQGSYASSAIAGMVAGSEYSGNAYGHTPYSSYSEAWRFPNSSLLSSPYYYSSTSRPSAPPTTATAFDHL
Sequence of Estrogen receptor beta (Q92731 whole entry): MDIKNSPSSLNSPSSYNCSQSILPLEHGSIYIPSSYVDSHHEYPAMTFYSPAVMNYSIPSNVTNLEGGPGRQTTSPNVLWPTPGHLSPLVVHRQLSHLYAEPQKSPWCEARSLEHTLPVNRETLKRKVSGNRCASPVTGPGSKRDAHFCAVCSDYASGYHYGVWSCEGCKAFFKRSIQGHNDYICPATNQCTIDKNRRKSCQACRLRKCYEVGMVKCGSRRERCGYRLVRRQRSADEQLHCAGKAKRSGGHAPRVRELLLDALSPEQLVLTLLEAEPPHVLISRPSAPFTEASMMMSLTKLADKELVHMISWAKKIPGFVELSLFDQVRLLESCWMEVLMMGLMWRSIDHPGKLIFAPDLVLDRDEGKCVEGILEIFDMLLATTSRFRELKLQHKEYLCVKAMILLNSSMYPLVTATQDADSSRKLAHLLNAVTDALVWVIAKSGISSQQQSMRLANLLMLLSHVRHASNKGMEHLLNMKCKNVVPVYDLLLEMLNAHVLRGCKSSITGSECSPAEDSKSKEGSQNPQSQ

For `CCc1ccc(CN2CCCC(CNC(=O)c3cccc(OC)c3OC)C2)cc1` (stereo unspecified), which EC50 [1] is on record?
The EC50 was < 100 nM (active).

And the EC50 [2]?
The EC50 was > 60 µM (not active).

What about the EC50 (cells) of the same molecule?
Its EC50 is 370 nM (active).

With `O=C(C[C@@H]1CC[C@H]2[C@@H](COC[C@@H](O)CN2Cc2cccc(C(F)(F)F)c2)O1)NCc1ccc(F)cc1` as the molecule, how does the AC50 (Paired box protein Pax-8) read?
The AC50 was 27.9 µM (active).

And the AC50 [3]?
Its AC50 is 51.7 µM (active).

What does the source list for `Nc1ncnc2c(C3OC(CO)C(O)C3O)scc12` (stereo unspecified)?
AC50 [4]: 322 nM (active); AC50 [5]: < 260 nM (active); AC50 [6]: 2.04 µM (active); AC50 (Paired box protein Pax-8): < 0.26 µM (active); AC50 [7]: 3.78 µM (active); AC50 [8]: 3.45 µM (active)

With `CCc1c(C)[nH]c2c(C#N)c(C)nn2c1=O` as the molecule, how does the Ki (fMet-Leu-Phe receptor) read?
Its Ki is 21.7 µM (inactive).

Which EC50 [1] does the source give for `Cc1sc(NC(=O)c2ccco2)c(C(c2cccnc2)N2CCN(c3ccc(F)cc3)CC2)c1C` (stereo unspecified) here?
Its EC50 is < 100 nM (active).

And the EC50 [2]?
The EC50 was > 60 µM (not active).

And the EC50 (cells)?
Its EC50 is 385 nM (active).

Which Ki (fMet-Leu-Phe receptor) does the source give for `COc1ccc(C(=O)C2=C(O)C(=O)N(Cc3ccco3)C2c2ccc(OC)cc2OC)cc1` (stereo unspecified) here?
The Ki was > 66.7 µM (inactive).

For `CN(C)C(=O)c1cccc(-c2ccc([C@@H]3[C@@H](CO)N4CCCCN(C(=O)C5CCC5)C[C@H]34)cc2)c1`, which AC50 [9] is on record?
Its AC50 is 14.4 µM (active).

Which IC50 (Estrogen receptor beta) does the source give for `O=c1[nH]c2ccccc2c(=O)n1Cc1ccco1` here?
The IC50 was > 50 µM (not active).

Which AC50 [9] does the source give for `CC(C)N1C[C@@H](CN(C)Cc2ccc(Cl)cc2)Oc2c(NC(=O)c3ccncn3)cccc2C1=O` here?
Its AC50 is 0.00548 µM (active).

With `O=C(O)c1cc(=O)c2c(OCC(O)COc3cccc4oc(C(=O)O)cc(=O)c34)cccc2o1` [CROMOLYN SODIUM] as the molecule, how does the AC50 (Vero) read?
The AC50 was 34.3 µM (active).

Which EC50 (BJ [10]) does the source give for `Cc1cccc(NC(=O)c2onc3c2CCCC3)n1` here?
Its EC50 is 18 µM (active).

What about the EC50 [11] of the same molecule?
The EC50 was 8.8 µM (active).

And the EC50 [12]?
Its EC50 is 6.78 µM (active).

And the EC50 (BJ [13])?
Its EC50 is 15 µM (active).

And the EC50 (BJ [14])?
The EC50 was > 150 µM (inconclusive).

And the EC50 [15]?
Its EC50 is 13.3 µM (active).

And the AC50 [16]?
The AC50 was 19.6 µM (active).

What about the AC50 [17] of the same molecule?
The AC50 was 19.4 µM (active).

What about the AC50 [18] of the same molecule?
Its AC50 is 3.23 µM (active).

And the AC50 [19]?
The AC50 was 5.51 µM (active).

What about the AC50 [20] of the same molecule?
Its AC50 is 15.9 µM (active).
